{"source": "paper PMC4689457", "about": "“Immucillins ImmA and ImmH Are Effective and Non-toxic in the Treatment of Experimental Visceral Leishmaniasis” (PLoS Neglected Tropical Diseases, 2015)", "key": {"[1]": {"test_system": "macrophage", "parameters": "method as in PMID 25909893", "settings": "10 μM; cited from earlier work"}, "[2]": {"test_system": "L. (L.) infantum chagasi infection", "assay": "Survival, body and organ weights of infected treated BALB/c mice", "assay_type": "in vivo", "settings": "end of the experiment", "protocol": "(§1) Female BALB/c mice, 8 week old, were infected through the caudal vein with 10^7 amastigotes of L. (L.) infantum (strain IOC-L 3324) isolated from infected hamsters spleens. After 15 days of infection, mice (n = 5 per treatment) were injected by the intraperitoneal route (ip) with daily doses for 5 days of 2.5 mg/Kg of IA, IH, SMIH [30, 31] or the control drug Glucantime (Sanofi Aventis, batch 0929280802) (Fig 1). Immucillins were synthesized at the Ferrier Research Institute, Victoria University of Wellington, New Zealand. Uninfected and infected mice treated only with saline were included as controls for the treatment cohorts. On days 1, 15, and 30 after complete treatment, the animals were euthanized with CO2. Blood samples were collected for sera analysis and weight of spleens, livers and total body were determined. Spleens were also used for determination of cytokine expression. The parasite load was evaluated in Giemsa-stained liver smears and expressed in LDU values (Leishman Donovan units of Stauber = number of amastigotes per 1000 liver cell nuclei/mg of liver weight). The levels of urea, creatinine, glutamate pyruvate transaminase (GPT) and glutamate oxaloacetate transaminase ([…]) were assessed in plasma by standard clinical laboratory procedures using a Wiener lab Metrolab 2300 (Laborlife Análises Clínicas laboratory, Rio de Janeiro)."}, "[3]": {"test_system": "L. (L.) infantum chagasi", "assay": "Liver parasite load in infected CB hamsters after chemotherapy", "assay_type": "in vivo, CB golden hamster", "settings": "2.5 mg/kg/day ip 5 days, 10 days after complete treatment", "protocol": "(§2) The efficacy of immucillins was also assayed in the CB golden hamster susceptible model. Females, 8 weeks old, were infected through the intracardiac route with 2 x 10^7 amastigotes of L. (L.) infantum chagasi (strain IOC-L 3324) isolated from infected hamsters spleens. Thirty days after infection, the animals were treated with 2.5 mg/kg daily doses of Glucantime, IA, IH or SMIH, through the ip route, for five days. Ten days after complete treatment the animals were euthanized, their parasite load was determined in livers and the renal function evaluated in sera samples as described above."}, "[4]": {"test_system": "L. (L.) infantum chagasi promastigotes", "parameters": "method as in PMID 25909893", "settings": "cited from earlier work"}, "[5]": {"test_system": "L. (L.) infantum chagasi", "assay": "Liver parasite load (LDU) in infected BALB/c mice after chemotherapy", "assay_type": "in vivo", "settings": "2.5 mg/kg/day ip 5 days; day 30 after complete treatment", "protocol": "as §1"}, "[6]": {"test_system": "blood PNP", "parameters": "method as in PMID 19170524", "settings": "mice; cited from earlier work"}, "[7]": {"test_system": "L. (L.) amazonensis promastigotes", "parameters": "method as in PMID 25909893", "settings": "cited from earlier work"}, "[8]": {"test_system": "L. (L.) infantum chagasi amastigotes", "parameters": "method as in PMID 25909893", "settings": "10 μM; cited from earlier work"}, "[9]": {"assay": "Body weight and renal/hepatic markers in sera of infected treated hamsters", "assay_type": "in vivo, CB golden hamster", "settings": "infected hamsters", "protocol": "as §2"}, "[10]": {"test_system": "CD4+, CD8+ and CD19+ lymphocytes", "assay": "CD4+, CD8+ and CD19+ lymphocyte frequencies by flow cytometry in splenocytes of uninfected treated mice", "assay_type": "cell-based, BALB/c mice", "protocol": "Female BALB/c mice, 8 weeks old, were injected intraperitoneally with daily doses 2.5 mg/Kg of IA, IH, SMIH or Glucantime during five days and euthanized on day 1, 15 and 30 after complete treatment. For evaluation of the T cell response, spleens were removed and splenocytes were incubated for 24 h in vitro with the lysate of 10^6 stationary phase promastigotes of L. (L.) infantum chagasi (MHOM/BR/1974/PP75), with 25 μg/mL NH36, at 37°C and 5% CO2, during 72 h for the assay of the cytokine expression in the supernatants. Additionally, splenocytes from uninfected BALB/c mice either untreated or previously treated with IA, IH, SMIH or Glucantime were incubated in vitro with 10 μg/mL of each respective drug. For flow cytometry analysis (FACS analysis), splenocytes were incubated for 24 h with the antigens or drugs, labeled with anti-CD4FITC (clone GK1.5), anti-CD8FITC (clone 53–6.7) monoclonal antibodies (R&D systems, Inc) or with rat anti-mouse CD19-PerCP-Cy5.5 and 100,000 lymphocyte counts were acquired using a BD FACScalibur apparatus. Data was analyzed using the Flow-Jo program. The secretion of cytokines was evaluated in the supernatants of splenocytes by an ELISA assay."}}, "data": [{"smiles": "O=c1[nH]cnc2c(CNC(CO)CO)c[nH]c12", "note": "[SMIH]", "values": [{"measurement": "damage to macrophage viability", "setting": "[1]", "result": "no apparent damage"}, {"measurement": "survival", "setting": "[2]", "result": 100, "unit": "%"}, {"measurement": "liver parasite load reduction", "setting": "[3]", "result": "no cure"}, {"measurement": "concentrations inhibiting growth of promastigotes in vitro", "setting": "[4]", "result": "nanomolar to micromolar"}, {"measurement": "reduction of liver parasite load (LDU)", "setting": "[5]", "result": 85, "unit": "%"}, {"measurement": "oral availability", "setting": "[6]", "result": "orally available"}, {"measurement": "concentrations inhibiting growth of promastigotes in vitro", "setting": "[7]", "result": "nanomolar to micromolar"}, {"measurement": "inhibition of intracellular replication of amastigotes", "setting": "[8]", "result": 95, "unit": "%"}, {"measurement": "reduction of blood urea levels", "setting": "[9]", "result": "~ 50%"}, {"measurement": "CD4+ T cell frequencies (in words)", "setting": "[10]", "result": "lower CD4+ T cell frequencies"}, {"measurement": "CD19 B cell frequencies enhanced by previous treatment", "setting": "[10]", "result": "~ 30%"}, {"measurement": "CD8+ T cell frequencies", "setting": "[10]; day 1 after treatment", "result": "diminished"}]}]}
